ChEMBL document CHEMBL1145306, “Synthesis of 2-C-hydroxymethylribofuranosylpurines as potent anti-hepatitis C virus (HCV) agents” (2006)

Experiments:
Hepatitis C virus [1] = assay: Antiviral activity against HCV in Huh7 cell line at 1 uM assessed as reduction in luciferase activity; assay type: functional, Hepacivirus hominis; settings: Huh-7
Hepatitis C virus [2] = assay: Antiviral activity against HCV in Huh7 cell line at 10 uM assessed as reduction in luciferase activity; assay type: functional, Hepacivirus hominis; settings: Huh-7

Compound: Nc1ncnc2c1ncn2[C@@H]1O[C@H](CO)[C@@H](O)[C@]1(O)CO
- inhibition at 1 µM (Hepatitis C virus [1]): 2%
- inhibition at 10 µM (Hepatitis C virus [2]): 50%
